Assay results reported in article PMC6105804, “In Vitro and In Vivo Evaluation of APX001A/APX001 and Other Gwt1 Inhibitors against Cryptococcus” (Antimicrobial Agents and Chemotherapy, 2018).
Values after ≈ are worked out from the molar mass of the structure shown. Like-named read-outs stand apart in the source and are kept apart here. Blank lines part the entries; values can stand above or below the molecule they belong to.

Columns and labels:
[1] = test system: FLC-susceptible and FLC-nonsusceptible/resistant strains of C. neoformans and C. gattii; experiment: Broth microdilution, summary over the 18-strain Cryptococcus collection; format: cell-based, Cryptococcus neoformans and Cryptococcus gattii; conditions: 18 strains of C. neoformans and C. gattii
Description: To establish the antimicrobial activity of the APX001A analogs, broth microdilution susceptibility testing was performed according to Clinical and Laboratory Standards Institute (CLSI) guidelines M27-A3 ([47]) for yeasts and M38-A2 for molds ([48]). APX001A and analogs were first diluted in DMSO to obtain intermediate dilutions. These were further diluted in microtiter plates to obtain a final concentration of 2 to 0.002 μg/ml. One microliter of DMSO was added to the no-drug control wells. The solutions were mixed on a plate shaker for 10 min, and the plates were incubated at 35°C for 40 to 48 h (C. albicans, A. fumigatus) and 72 h (C. neoformans). The minimum concentration that led to a 50% reduction in fungal growth compared to that for the control (determined with the aid of a reading mirror) was determined as the MIC for C. albicans and C. neoformans. […] The use of the MIC and MEC endpoints for APX001A (formerly E1210) against yeasts and molds, respectively, has been described previously ([19][–][21]). For the cryptococcal synergy studies, APX001A and APX2020 MIC values were read at 50% inhibition.

C. neoformans H99 = experiment: Microtiter checkerboard synergy with FLC; format: cell-based, Cryptococcus neoformans; conditions: in combination with FLC, MIC read at 50% inhibition, synergy FICI < 0.5
Description: An important consideration for developing a new treatment for CM is the potential for inclusion in combination therapy. We evaluated the synergy of APX001A and APX2020 in combination with FLC using standard microtiter dilution techniques ([33]). […] Importantly, no antagonism was observed.
To establish the antimicrobial activity of the APX001A analogs, broth microdilution susceptibility testing was performed according to Clinical and Laboratory Standards Institute (CLSI) guidelines M27-A3 ([47]) for yeasts and M38-A2 for molds ([48]). APX001A and analogs were first diluted in DMSO to obtain intermediate dilutions. These were further diluted in microtiter plates to obtain a final concentration of 2 to 0.002 μg/ml. One microliter of DMSO was added to the no-drug control wells. The solutions were mixed on a plate shaker for 10 min, and the plates were incubated at 35°C for 40 to 48 h (C. albicans, A. fumigatus) and 72 h (C. neoformans). The minimum concentration that led to a 50% reduction in fungal growth compared to that for the control (determined with the aid of a reading mirror) was determined as the MIC for C. albicans and C. neoformans. The minimum concentration that led to the shortening of hyphae compared to the hyphal growth in DMSO control wells was determined as the minimum effective concentration (MEC) for A. fumigatus (as read for the echinocandins). […]

C. neoformans [2] = experiment: Broth microdilution susceptibility testing (CLSI M27-A3); format: cell-based, Cryptococcus neoformans; conditions: for MIC: Cryptococcus neoformans
Description: (§1) C. neoformans strains H99, DUMC 118.00, and DUMC 158.03 and C. gattii strains R272 and RSA-MW-3515 were obtained from Duke University. C. albicans 90028, A. fumigatus MYA3626, C. neoformans 14116, C. neoformans 76484, and the pathogenic Cryptococcus reference strains panel (ATCC MP-11) were obtained from the American Type Culture Collection (ATCC; Manassas, VA, USA). The ATCC MP-11 panel consists of strains representing eight molecular types and three subtypes of C. neoformans and C. gattii.
(§2) To establish the antimicrobial activity of the APX001A analogs, broth microdilution susceptibility testing was performed according to Clinical and Laboratory Standards Institute (CLSI) guidelines M27-A3 ([47]) for yeasts and M38-A2 for molds ([48]). APX001A and analogs were first diluted in DMSO to obtain intermediate dilutions. These were further diluted in microtiter plates to obtain a final concentration of 2 to 0.002 μg/ml. One microliter of DMSO was added to the no-drug control wells. The solutions were mixed on a plate shaker for 10 min, and the plates were incubated at 35°C for 40 to 48 h (C. albicans, A. fumigatus) and 72 h (C. neoformans). The minimum concentration that led to a 50% reduction in fungal growth compared to that for the control (determined with the aid of a reading mirror) was determined as the MIC for C. albicans and C. neoformans. The minimum concentration that led to the shortening of hyphae compared to the hyphal growth in DMSO control wells was determined as the minimum effective concentration (MEC) for A. fumigatus (as read for the echinocandins). The use of the MIC and MEC endpoints for APX001A (formerly E1210) against yeasts and molds, respectively, has been described previously ([19][–][21]). For the cryptococcal synergy studies, APX001A and APX2020 MIC values were read at 50% inhibition.

C. gattii = experiment: as above; format: cell-based; conditions: Cryptococcus gattii
Description: as §1, §2

[3] = Single-dose mouse pharmacokinetics of prodrugs with or without ABT; format: in vivo; conditions: for AUC: male, CD-1, mouse, plasma, 26 mg/kg
Description: The area under the curve (AUC) was calculated from time zero to the time of the last measurable concentration. The active metabolite concentrations in plasma (APX001A, APX2039, APX2020, and APX2041) were determined by liquid chromatography-tandem mass spectrometry. PK parameters were determined using Phoenix WinNonlin (v7.0) software and a noncompartmental model.

C. albicans 90028 = experiment: Broth microdilution susceptibility testing (CLSI M27-A3); format: cell-based, Candida albicans; conditions: Candida albicans, 90028; read-out: MIC, C. albicans 90028
Description: as §1, §2

A. fumigatus MYA3626 = experiment: Broth microdilution susceptibility testing for molds (CLSI M38-A2); format: cell-based; conditions: Aspergillus fumigatus, MYA3626; read-out: MIC or MEC for A. fumigatus MYA3626
Description: as §1, §2

C. neoformans [4] = test system: C. neoformans; design: method as in PMID 23740727; conditions: 46 strains of C. neoformans, global study; cited from earlier work

MIC90 [1]: 0.25 µg/mL | MIC ([1]; read-out: Geometric mean MIC): 0.085 µg/mL | MIC (C. neoformans [2]; 72 h, Table 1, 50% growth inhibition for FLC, caspofungin and APX compounds, 100% for AMB, 72 h, read-out: MIC, C. neoformans H99): 0.031 µg/mL | MIC (C. neoformans [2]; C. neoformans isolate 14116, read-out: MIC): 0.031 µg/mL | MIC (C. neoformans [2]; C. neoformans isolate 76484, read-out: MIC): 0.063 µg/mL | MIC (C. neoformans [2]; C. neoformans isolate DUMC 118.00 (FLC resistant), read-out: MIC): 0.063 µg/mL | MIC (C. neoformans [2]; C. neoformans isolate DUMC 158.03 (FLC resistant), read-out: MIC): 0.25 µg/mL | MIC (C. neoformans [2]; C. neoformans isolate MYA-4564, read-out: MIC): 0.063 µg/mL | MIC (C. neoformans [2]; C. neoformans isolate MYA-4565, read-out: MIC): 0.25 µg/mL | MIC (C. neoformans [2]; C. neoformans isolate MYA-4566, read-out: MIC): 0.125 µg/mL | MIC (C. neoformans [2]; C. neoformans isolate MYA-4567, read-out: MIC): 0.063 µg/mL | MIC (C. neoformans [2]; Table 2, C. neoformans isolate H99, read-out: MIC): 0.031 µg/mL | MIC (C. gattii; C. gattii isolate MYA-4093, read-out: MIC): 0.125 µg/mL | MIC (C. gattii; C. gattii isolate MYA-4094, read-out: MIC): 0.25 µg/mL | MIC (C. gattii; C. gattii isolate MYA-4560 (first listing, r17), read-out: MIC): 0.063 µg/mL | MIC (C. gattii; C. gattii isolate MYA-4560 (second listing, r21), read-out: MIC): 0.063 µg/mL | MIC (C. gattii; C. gattii isolate MYA-4561, read-out: MIC): 0.125 µg/mL | MIC (C. gattii; C. gattii isolate MYA-4562, read-out: MIC): 0.125 µg/mL | MIC (C. gattii; C. gattii isolate MYA-4563, read-out: MIC): 0.125 µg/mL | MIC (C. gattii; C. gattii isolate MYA-4877, read-out: MIC): 0.063 µg/mL | MIC (C. gattii; C. gattii isolate RSA-MW-3615 (FLC resistant), read-out: MIC): 0.031 µg/mL | MIC (C. gattii; Table 1, 50% growth inhibition for FLC, caspofungin and APX compounds, 100% for AMB, read-out: MIC, C. gattii WM276): 0.031 µg/mL | Ratio of AUC with ABT/AUC without ABT, i.p. dosing ([3]; 26 mg/kg prodrug): 8.3 | Ratio of AUC with ABT/AUC without ABT, p.o. dosing ([3]; 26 mg/kg prodrug): 9.3 | AUC ([3]; intraperitoneal, AUC of analyte after 26 mg/kg prodrug, 100 mg/kg ABT orally 2 h before, read-out: Avg AUC resulting from 26-mg/kg dose, i.p. dosing + ABT): 35600 ± 28200 ng·h/mL | AUC ([3]; ip, AUC of analyte after 26 mg/kg of the corresponding prodrug, male CD-1 mice, no ABT, read-out: Avg AUC resulting from 26-mg/kg dose, i.p. dosing): 4310 ± 960 ng·h/mL | AUC ([3]; po, AUC of analyte after 26 mg/kg prodrug, 100 mg/kg ABT orally 2 h before, read-out: Avg AUC resulting from 26-mg/kg dose, p.o. dosing + ABT): 41900 ± 6410 ng·h/mL | AUC ([3]; po, AUC of analyte in plasma after 26 mg/kg of the corresponding prodrug, male CD-1 mice, no ABT, read-out: Avg AUC resulting from 26-mg/kg dose, p.o. dosing): 4490 ± 2320 ng·h/mL | MIC (C. albicans 90028): 0.016 µg/mL | MIC (A. fumigatus MYA3626): 0.031 µg/mL
SMILES: Nc1ncccc1-c1cc(Cc2ccc(OCc3ccccc3)cc2)no1 [APX2020]
fractional inhibitory concentration index (FICI) (C. neoformans H99): 0.37 | fold improved anti-C. neoformans H99 activity vs APX001A (C. neoformans [2]; from MIC values of Table 1): 8 fold

SMILES: C[C@@H](c1nc(-c2ccc(C#N)cc2)cs1)[C@](O)(Cn1cncn1)c1cc(F)ccc1F [isavuconazole]
MIC90 (C. neoformans [4]): 0.06 µg/mL (≈ 0.137 µM)
